Test results published in patent US6310056A, “Carbapenem derivatives” (Meiji Seika Kaisha, Ltd., priority 1997, dated 2001).
Values after ≈ are worked out from the molar mass of the structure shown. Where a name gives a salt, the structure may show the parent alone.

Experiments:
[1] = Stability against DHP-I, porcine; format: in vitro ADME; settings: pig, renal dehydropeptidase i, pH 7, 100 μg (titer)/ml, 37° C., HPLC, read-out: residual amount after 3 hours
Protocol: (§1) The stabilities of the compounds according to the present invention against porcine and mouse renal dehydropeptidases were measured by the following method.
(§2) Kidney acetone powder, Porcine Type II(Sigma; Lot. 33H7225; 1.5 g) was suspended in a 50 mM Tris.HCl buffer (pH 7.0) containing 20% butanol, and the mixture was stirred at 5° C. for 48 hours. Dialysis (Cellulose tube 30/32; Viskase Sales Corp) was conducted with a 50 mM Tris.HCl buffer (pH 7.0) in order to remove butanol to a level of no smell of butanol. The dialysate was centrifuged at 10000×g (KUBOTA 6800) for 20 minutes to give a supernatant as a partly purified DHP-I, which was divided into portions and stored at -80° C. Also, a partly purified DHP-I was prepared from 1.5 g of Mouse (Lot. 23F8105), and stored in the same manner as above.
(§3) The compounds according to the present invention as a basic pharmaceutical was diluted with sterile purified water to prepare a solution having a titer of 2000 μg/ml. The solution of the compound according to the present invention having a titer of 2000 μg/ml was added to the partly purified DHP-I's of the above described animals so as to have a final concentration of 100 μg (titer)/ml. As a blank, 50 mM Tris.HCl buffer (pH 7.0) was used in place of the partly purified DHP-I's of the animals. After reaction at 37° C. for 3 hours, a portion of the reaction mixture was taken out, diluted with the same amount of methanol to stop the reaction by cooling in ice. The reaction mixture was filtered through SUNPLEP LCR13-LH, MILLIPORE), and subjected to HPLC (column: CAPCELL PACK C18 SG120, SHISEIDO; UV detector; mobile phase: acetonitrile--10 mM aqueous acetic acid solution) to measure the residual amount (%) of […] according to the following equation. [formula]

[2] = Stability against DHP-I, mouse; format: in vitro ADME; settings: renal dehydropeptidase i, pH 7, 100 μg (titer)/ml, 37° C., HPLC, read-out: residual amount after 3 hours
Protocol: as §1, §2, §3

[3] = system: S. pneumoniae PRC9 (penicillin-hyper resistant strain, PRSP); assay: Anti-microbial activities (MIC); format: cell-based; settings: Streptococcus pneumoniae, Sensitivity Disk agar-N+5% Horse blood, 10^6 CFU/ml, read-out: minimum inhibiting concentration (MIC)
Protocol: (§4) The minimum inhibiting concentrations (MIC, […]) of the compounds according to the present invention to various pathogenic bacteria was measured in accordance with the method described in CHEMOTHERAPY, vol. 16, No. 1, 99, 1968. The culture medium for measurement was Sensitivity Disk agar-N+5% Horse blood, and the amount of inoculants was 10^6 CFU/ml.
**: penicillin-hyper resistant strain (PRSP);

S. aureus 209P JC-1 = assay: Anti-microbial activities (MIC); format: cell-based; settings: Staphylococcus aureus, Sensitivity Disk agar-N+5% Horse blood, 10^6 CFU/ml, read-out: minimum inhibiting concentration (MIC)
Protocol: as §4

H. influenzae PRC2 = assay: Anti-microbial activities (MIC); format: cell-based; settings: Haemophilus influenzae, Sensitivity Disk agar-N+5% Horse blood, 10^6 CFU/ml, read-out: minimum inhibiting concentration (MIC)
Protocol: as §4

E. faecalis W-73 = assay: Anti-microbial activities (MIC); format: cell-based; settings: Enterococcus faecalis, W73, Sensitivity Disk agar-N+5% Horse blood, 10^6 CFU/ml, read-out: minimum inhibiting concentration (MIC)
Protocol: as §4

E. coli NIHJ JC-2 = assay: Anti-microbial activities (MIC); format: cell-based; settings: Escherichia coli, NIHJJC2, Sensitivity Disk agar-N+5% Horse blood, 10^6 CFU/ml, read-out: minimum inhibiting concentration (MIC)
Protocol: as §4

P. vulgaris GN7919 = assay: Anti-microbial activities (MIC); format: cell-based; settings: Proteus vulgaris, Sensitivity Disk agar-N+5% Horse blood, 10^6 CFU/ml, read-out: minimum inhibiting concentration (MIC)
Protocol: as §4

E. hirae ATCC8043 = assay: Anti-microbial activities (MIC); format: cell-based; settings: Enterococcus hirae, Sensitivity Disk agar-N+5% Horse blood, 10^6 CFU/ml, read-out: minimum inhibiting concentration (MIC)
Protocol: as §4

C. freundii GN346 = assay: Anti-microbial activities (MIC); format: cell-based; settings: Citrobacter freundii, Sensitivity Disk agar-N+5% Horse blood, 10^6 CFU/ml, read-out: minimum inhibiting concentration (MIC)
Protocol: as §4

K. pneumoniae PCI602 = assay: Anti-microbial activities (MIC); format: cell-based; settings: Klebsiella pneumoniae, Sensitivity Disk agar-N+5% Horse blood, 10^6 CFU/ml, read-out: minimum inhibiting concentration (MIC)
Protocol: as §4

B. catarrhalis W-0506 = assay: Anti-microbial activities (MIC); format: cell-based; settings: Moraxella catarrhalis, W0506, Sensitivity Disk agar-N+5% Horse blood, 10^6 CFU/ml, read-out: minimum inhibiting concentration (MIC)
Protocol: as §4

S. epidermidis ATCC14990 = assay: Anti-microbial activities (MIC); format: cell-based; settings: Staphylococcus epidermidis, Sensitivity Disk agar-N+5% Horse blood, 10^6 CFU/ml, read-out: minimum inhibiting concentration (MIC)
Protocol: as §4

H. influenzae PRC44 = assay: Anti-microbial activities (MIC); format: cell-based; settings: Haemophilus influenzae, Sensitivity Disk agar-N+5% Horse blood, 10^6 CFU/ml, read-out: minimum inhibiting concentration (MIC)
Protocol: as §4

[4] = system: S. aureus M126 (methicillin-hyper resistant strain, MRSA); assay: Anti-microbial activities (MIC); format: cell-based; settings: Staphylococcus aureus, Sensitivity Disk agar-N+5% Horse blood, 10^6 CFU/ml, read-out: minimum inhibiting concentration (MIC)
Protocol: as §4
*: methicillin-hyper resistant strain (MRSA);

Acute toxicity test = format: in vivo, mice (ICR, male); settings: intravenous, 2000 mg/kg, mice, n=3
Protocol: The compound of Example 1 was administered intravenously to mice (ICR, male, n =3) in an amount of 2000 mg/kg.

`C[C@@H](O)[C@H]1C(=O)N2C(C(=O)O)=C(S[C@@H]3CN[C@H](C(=O)N(C)C)C3)[C@H](C)[C@H]12` [C, meropenem, reference compound] showed a remaining at 3 h [1] of 72% and a remaining at 3 h [2] of 18%.
Compound `C[C@@H](O)[C@H]1C(=O)N2C(C(=O)O)=C(SCCN=CN)C[C@H]12` [Compound A, imipenem, reference compound] has an MIC [3] of 0.2 mg/L (≈ 0.668 µM), an MIC (S. aureus 209P JC-1) of less than 0.025 mg/L and an MIC (H. influenzae PRC2) of 0.78 mg/L (≈ 2.61 µM). It also gave an MIC (E. faecalis W-73) of 0.78 mg/L (≈ 2.61 µM), an MIC (E. coli NIHJ JC-2) of 0.1 mg/L (≈ 0.334 µM) and an MIC (P. vulgaris GN7919) of 0.1 mg/L (≈ 0.334 µM). It also gave an MIC (E. hirae ATCC8043) of 0.78 mg/L (≈ 2.61 µM), an MIC (C. freundii GN346) of 0.2 mg/L (≈ 0.668 µM) and an MIC (K. pneumoniae PCI602) of 0.2 mg/L (≈ 0.668 µM). For the same compound, the MIC (B. catarrhalis W-0506) was less than 0.025 mg/L, the MIC (S. epidermidis ATCC14990) was less than 0.025 mg/L and the MIC (H. influenzae PRC44) was 12.5 mg/L (≈ 41.8 µM). For the same compound, the MIC [4] was 25 mg/L (≈ 83.5 µM), the remaining at 3 h [1] was 0.6% and the remaining at 3 h [2] was 24%.
With `C[C@@H](O)[C@H]1C(=O)N2C(C(=O)O)=C(S[C@@H]3CN[C@H](Cc4cn5c[n+](C)cc5s4)C3)[C@H](C)[C@H]12` [Compound B, (1R,5S,6S)-6-((1R)-1-hydroxyethyl)-1-methyl-2-[(3S,5S)-5-(6-methylimidazo[5,1-b]thiazolium-2-yl)methylpyrrolidin-3-yl]thiocarbapen-2-em-3-carboxylic acid iodide, reference compound] the MIC [3] was 0.39 mg/L, the MIC (S. aureus 209P JC-1) was less than 0.025 mg/L and the MIC (H. influenzae PRC2) was 0.1 mg/L. For the same compound, the MIC (E. faecalis W-73) was 3.13 mg/L, the MIC (E. coli NIHJ JC-2) was 0.05 mg/L and the MIC (P. vulgaris GN7919) was 0.1 mg/L. The MIC (E. hirae ATCC8043) was 1.56 mg/L, the MIC (C. freundii GN346) was 0.1 mg/L and the MIC (K. pneumoniae PCI602) was 0.1 mg/L. The MIC (B. catarrhalis W-0506) was less than 0.025 mg/L, the MIC (S. epidermidis ATCC14990) was 0.05 mg/L and the MIC (H. influenzae PRC44) was 0.78 mg/L. It also gave an MIC [4] of 6.25 mg/L.
Work on `C[C@@H](O)[C@H]1C(=O)N2C(C(=O)O)=C(c3cn4cncc4s3)[C@H](C)[C@H]12` [Example 1, (1S,5R,6S)-6-((1R)-1-hydroxyethyl)-2-(imidazo[5,1-b]thiazol-2-yl)-1-methyl-1-carbapen-2-em-3-carboxylic Acid] yielded an MIC [3] of 0.1 mg/L (≈ 0.3 µM), an MIC (S. aureus 209P JC-1) of less than 0.025 mg/L and an MIC (H. influenzae PRC2) of less than 0.025 mg/L. The MIC (E. faecalis W-73) was 0.2 mg/L (≈ 0.6 µM), the MIC (E. coli NIHJ JC-2) was 0.1 mg/L (≈ 0.3 µM) and the MIC (P. vulgaris GN7919) was 0.05 mg/L (≈ 0.15 µM). The MIC (E. hirae ATCC8043) was 0.39 mg/L (≈ 1.17 µM), the MIC (C. freundii GN346) was 1.56 mg/L (≈ 4.68 µM) and the MIC (K. pneumoniae PCI602) was 0.1 mg/L (≈ 0.3 µM). For the same compound, the MIC (B. catarrhalis W-0506) was less than 0.025 mg/L, the MIC (S. epidermidis ATCC14990) was less than 0.025 mg/L and the MIC (H. influenzae PRC44) was 0.39 mg/L (≈ 1.17 µM). The MIC [4] was 3.13 mg/L (≈ 9.39 µM), the remaining at 3 h [1] was 87% and the “survival (acute toxicity)” value (Acute toxicity test) was “all of the animals were survived”. For the same compound, the remaining at 3 h [2] was less than 2.9%.
`C[C@@H](O)[C@H]1C(=O)N2C(C(=O)[O-])=C(c3cn4c[n+](C)cc4s3)[C@H](C)[C@H]12` [Example 4, (1S,5R,6S)-6-((1R)-1-hydroxyethyl)-1-methyl-2-(6-methylimidazo[5,1-b]thiazolium-2-yl)-1-carbapen-2-em-3-carboxylate (inner salt)] showed an MIC [3] of 0.05 mg/L, an MIC (S. aureus 209P JC-1) of less than 0.025 mg/L and an MIC (H. influenzae PRC2) of 0.05 mg/L. It also gave an MIC (E. faecalis W-73) of 0.1 mg/L, an MIC (E. coli NIHJ JC-2) of less than 0.025 mg/L and an MIC (P. vulgaris GN7919) of 0.1 mg/L. It also gave an MIC (E. hirae ATCC8043) of 0.78 mg/L, an MIC (C. freundii GN346) of 0.1 mg/L and an MIC (K. pneumoniae PCI602) of 0.05 mg/L. For the same compound, the MIC (B. catarrhalis W-0506) was less than 0.025 mg/L, the MIC (S. epidermidis ATCC14990) was less than 0.025 mg/L and the MIC (H. influenzae PRC44) was 0.39 mg/L. For the same compound, the MIC [4] was 3.13 mg/L, the remaining at 3 h [1] was 100% and the remaining at 3 h [2] was 94%.
`C[C@@H](O)[C@H]1C(=O)N2C(C(=O)O)=C(c3cn4cncc4s3)C[C@H]12` [Example 8, (5R,6S)-6-((1R)-1-hydroxyethyl)-2-(imidazo[5,1-b]thiazol-2-yl)-1-carbapen-2-em-3-carboxylic Acid] showed an MIC [3] of 0.2 mg/L (≈ 0.626 µM), an MIC (S. aureus 209P JC-1) of less than 0.025 mg/L and an MIC (H. influenzae PRC2) of 0.05 mg/L (≈ 0.157 µM). The MIC (E. faecalis W-73) was 0.39 mg/L (≈ 1.22 µM), the MIC (E. coli NIHJ JC-2) was 0.1 mg/L (≈ 0.313 µM) and the MIC (P. vulgaris GN7919) was 0.1 mg/L (≈ 0.313 µM). For the same compound, the MIC (E. hirae ATCC8043) was 0.78 mg/L (≈ 2.44 µM), the MIC (C. freundii GN346) was 0.2 mg/L (≈ 0.626 µM) and the MIC (K. pneumoniae PCI602) was 0.05 mg/L (≈ 0.157 µM). It also gave an MIC (B. catarrhalis W-0506) of less than 0.025 mg/L, an MIC (S. epidermidis ATCC14990) of 0.05 mg/L (≈ 0.157 µM) and an MIC (H. influenzae PRC44) of 0.78 mg/L (≈ 2.44 µM). It also gave an MIC [4] of 6.25 mg/L (≈ 19.6 µM), a remaining at 3 h [1] of 60% and a remaining at 3 h [2] of less than 0.2%.
